Measurements as given in patent EP2090164B1, “A rodenticide bait based on a synergetic association of anticoagulant active ingredients” (priority 2008, dated 2009).

Legend:
[1] = WHO, 1995, cited from earlier work
infesting murine species = assay type: in vivo; conditions: same amount of anticoagulant
rat = conditions: active ingredient; cited from earlier work
[2] = cited from earlier work
dog = conditions: active ingredient; cited from earlier work
mouse = conditions: active ingredient; cited from earlier work
cat = conditions: active ingredient; cited from earlier work
murine population = conditions: in vivo; cited from earlier work
Mus musculus = conditions: both genders and all ages of the Mus musculus; cited from earlier work
Rattus norvegicus = conditions: young prepubertal; females of Rattus norvegicus; cited from earlier work
[3] = liver and kidney, two-phase course

Compound | elimination from both liver and kidney, rather rapid initial phase [1, 3] | elimination from both liver and kidney, second, much slower, phase [1, 3] | half-life in the pancreas ([1]; pancreas) | disinfesting action with respect to that of brodifacoum (infesting murine species) | a.p. LD50 (rat) | half-life in man [2] | a.p. LD50 (dog) | a.p. LD50 (mouse) | a.p. LD50 (cat) | eliminating of the treated murine population (murine population) | activity as chemosterilant (Mus musculus) | activity as chemosterilant (Rattus norvegicus)
O=c1oc2ccccc2c(O)c1C1CC(c2ccc(-c3ccccc3)cc2)Cc2ccccc21 (stereo not drawn) [DIPHENACOUM, diphenacoum] | 3 days | 118 to 120 days | 182 days | inferior | 1.8 mg/kg | 11.5 days | >50.0 mg/kg | 0.8 mg/kg | >100 mg/kg |  |  | 
OCC(O)CCl (stereo not drawn) [α-chlorohydrin] |  |  |  |  |  |  |  |  |  | up to 85% | not active | not active
O=c1oc2ccccc2c(O)c1C(CC(O)c1ccc(-c2ccc(Br)cc2)cc1)c1ccccc1 (stereo not drawn) [BROMADIOLON, bromadiolon] |  |  |  | inferior | 1.125 mg/kg |  | >10.0 mg/kg | 1.75 mg/kg | >25 mg/kg |  |  | 
O=c1oc2ccccc2c(O)c1C1CC(c2ccc(-c3ccc(Br)cc3)cc2)Cc2ccccc21 (stereo not drawn) [BRODIFACOUM, brodifacoum] |  |  |  |  | 0.4 mg/kg |  | 0.25 to 3.6 mg/kg | 0.4 mg/kg | 25 mg/kg |  |  | 
